Data from US20230233533A1, “COMPOSITIONS, METHODS OF TREATING AND PREVENTING FUNGAL INFECTIONS, AND METHODS OF INHIBITING PRP8 INTEIN EXPRESSION” (Health Research, Inc., priority 2020, published 2023).
Converted amounts (≈) assume the structure as drawn. Read-outs that look alike come from different tables or passages of the source.

Assays:
papain = target: T1, papain (Carica papaya, UniProt P00784); experiment: Papain protease inhibition (Abz FRET substrate); format: biochemical; conditions: compound at 400 μM
T1 construct: purchased Sigma-Aldrich
T1 sequence (P00784 134-345): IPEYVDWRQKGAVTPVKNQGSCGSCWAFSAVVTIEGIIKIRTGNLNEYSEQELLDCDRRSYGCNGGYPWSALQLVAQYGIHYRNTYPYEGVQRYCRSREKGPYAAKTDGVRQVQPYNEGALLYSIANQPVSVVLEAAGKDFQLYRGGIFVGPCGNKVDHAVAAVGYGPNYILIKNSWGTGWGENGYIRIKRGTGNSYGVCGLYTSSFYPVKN
Procedure: Trypsin and papain protease inhibition—An Abz FRET substrate (Abz-RRRRSAG-nTyr) developed previously (Li et al., “Existing Drugs as Broad-Spectrum and Potent Inhibitors for Zika Virus by Targeting NS2B-NS3 Interaction,” Cell Research 27(8):1046-1064 (2017), which is hereby incorporated by reference in its entirety) was used as the substrate for inhibition of trypsin and papain proteases. In black and clear-bottom 96-well plates, 1 μg trypsin (Sigma-Aldrich) was incubated with DMF or compounds at 400 μM at 25° C. for 30 min in a 70 μl reaction buffer containing 20 mM Tris, pH 8.0, 100 mM NaCl, 5% Glycerol, and 0.05% CHAPS. For papain, 1 μg Papain (Sigma-Aldrich) was incubated with compounds at 400 μM at 25° C. for 30 min in a 70 μl reaction buffer composed of 1.1 mM EDTA, 0.067 mM β-mercaptoethanol, 5.5 mM cysteine. […]

C. neoformans H99 strain = experiment: Fungal susceptibility test, broth microdilution MIC; format: cell-based, Cryptococcus neoformans; conditions: for MIC: Cryptococcus neoformans, H99STRAIN
Method in brief: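 Compound MICs were determined by broth microdilution using a compound concentration series.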

Candida albicans = experiment: as above; format: cell-based; conditions: microdilution assay
Procedure: Fungal susceptibility test—The fungal susceptibility test was carried out with a compound concentration series as described. Li et al., “Cisplatin Protects Mice From Challenge of Cryptococcus neoformans by Targeting the Prp8 Intein,” Emerging Microbes & Infections 8(1):895-908 (2019), which is hereby incorporated by reference in its entirety. The broth microdilution method was used to determine the compound MIC values against C. neoformans. In brief, serial 2-fold dilutions of the 6G-318SS (20 to 0.03 μg/ml) were made in 100 μl RPMI-1640 medium with MOPS in 96-well U-bottom plates. The C. neoformans H99 strain (100 μl of 0.5×10^5/ml) in log phase was added to each well. […] The MIC break-point was defined as no visible fungal growth by naked eye or by determining the 90% growth inhibition using absorbance at 630 nm, compared with no inhibitor control in a 96-well plate.
C. albicans, a fungus without the Prp8 intein, was also used as a control.

C. neoformans H99 = experiment: Checkerboard assay; format: cell-based, Cryptococcus neoformans
Procedure: Compounds were initially dissolved in DMSO and diluted in RPMI-1640-MOPS media four times the targeted final concentration and 50 μl was added per well. The second compound was similarly diluted and 50 μl was added per well, to a final volume of 100 μl/well. C. neoformans […] inoculum (100 μl) prepared from freshly grown cultures and diluted to an absorbance of 0.1 at 530 nm in water and further diluted (1:500) in RPMI-1640-MOPS was added to each well. To determine the fungicidal concentration of a compound, the wells with no visible growth were serially diluted, plated on SDA, and incubated at 30° C. for 48-72 h for the recovery of colony-forming units. Additionally, the cell density of treated and untreated wells was also estimated by reading absorbance at 630 nm using an EL808 reader (Bio-Tek). Percentage of inhibition compared to that of the no-drug-control well was calculated. […] Fractional inhibitory concentration (FIC) index value is calculated as the […]. The FIC index value is then used to categorize the interaction of the two compounds tested. […] Doern, C., “When Does 2 plus 2 Equal 5?A Review of Antimicrobial Synergy Testing,” Journal of Clinical Microbiology 52(12):4124-4128 (2014), which is hereby incorporated by reference in its entirety.

[1] = target: C1A/H62A/D95A/H169A (AAAA) Prp8 intein mutant; experiment: Surface plasmon resonance (SPR), AAAA mutant; format: binding, Cryptococcus gattii
Procedure: The Prp8 intein and mutants were immobilized onto a ProteOn™ GLH sensor chip (2,500-7,000 RU) (Bio-Rad). A 3-fold dilution series of compounds was injected as the analytes. A blank surface blocked by ethanolamine was used as the control surface. The experiment was carried out at a flow rate of 100 μl/min using a PBSTD buffer containing 1×PBS, 0.005% surfactant P20, and 5% DMSO. Association (ka) and dissociation (kd) rates, as well as the dissociation constant (KD), were obtained by global fitting of the SPR data from multiple concentrations to a simple 1:1 Langmuir binding model, using the ProteOn Manager software suite (Bio-Rad).

Prp8 intein = experiment: Western blot of Prp8 intein splicing in C. neoformans H99; format: cell-based; conditions: 0.32 μg/ml, 3 h post-treatment
Procedure: Western blot (WB)—Fresh colonies of Cryptococcus neoformans were grown in yeast extract peptone dextrose (YPD) broth in an environmental shaker (250 rpm) overnight at 30° C. The fungal cells (5 ml) were diluted in 125 ml YPD broth and grown for 1.5 h to a final cell density of 0.2 at OD530. The cells were distributed to test tubes (3 ml/tube). Then 3 ml of YPD medium containing DMF or 2-fold diluted compounds was added to the cells. The mixtures were incubated at 30° C. in a shaker at 250 RPM for up to 18 h. Samples were spun down and pellets were frozen for WB analysis.
Cryptococcal cells treated with DMF or compounds were washed twice with PBS buffer. Cells were spun down and supernatant was removed. For a 6-ml cell pellet, 30 μl of complete protease inhibitor cocktail in PBS was added to the cells, followed by addition of 400 μl lysis buffer (50 mM Tris, pH 8.0, 500 mM NaCl, 10% glycerol) and 500 μl glass beads. The fungal cells were lysed by rigorous beating for 2 min 3 times. The cell lysate was spun down. Supernatant was mixed with SDS-PAGE loading buffer (1:1). The mixtures were boiled at 95° C. for 10 min, followed by centrifugation at 15,000 rpm for 10 min. Samples were analyzed using 12% SDS-PAGE. The separated samples were blotted to a PVDF membrane and subjected to WB analysis using an antibody against the Prp8 intein. […]

O=C(Nc1ccc(F)cc1)c1nnsc1S(=O)(=O)c1ccc(Cl)cc1 [6G-318S, 5-[(4-chlorophenyl)sulfonyl]-N-(4-fluorophenyl)-1,2,3-thiadiazole-4-carboxamide]
inhibition of papain protease activity (papain): neither 6G-318S, 6G-319S, nor cisplatin significantly inhibited
MIC (C. neoformans H99 strain; C. neoformans H99, microbroth dilution, read-out: MIC H99): 1.56 µM
MIC (C. neoformans H99 strain; C. neoformans and other related species, read-out: minimum inhibitory concentration (MIC) 90): 0.6 to 1 µg/mL
MIC (C. neoformans H99 strain; H99 strain, 48 h, 30° C., read-out: MIC C. neoformans): 0.62 µg/mL
MIC C. neoformans (C. neoformans H99 strain; H99 strain, 48 h, 30° C.): 0.6 µg/mL (≈ 1.51 µM)
MIC (Candida albicans): 5 µg/mL (≈ 12.6 µM)
MIC (C. neoformans H99; Cryptococcus neoformans, H99, 48 h): 1 µg/mL
Effect (C. neoformans H99; combination 6G-318S + 5-FC): Additive (>0.5 to 1 is additive)
MIC-comb (C. neoformans H99; combination 6G-318S + 5-FC, well D6): 0.500 µg/mL
Effect (C. neoformans H99; combination 6G-318S + AmB): Synergistic (FIC index value of ≤0.5 is considered as synergy)
MIC-comb (C. neoformans H99; combination 6G-318S + AmB, well F6): 0.125 µg/mL
Effect (C. neoformans H99; combination 6G-318S + IZ): Additive (>0.5 to 1 is additive)
MIC-comb (C. neoformans H99; combination 6G-318S + IZ, well D6): 0.500 µg/mL
Effect (C. neoformans H99; combination 6G-318S + Vor): Indifferent (>1 to 4 is indifferent)
MIC-comb (C. neoformans H99; combination 6G-318S + Vor, well G3): 0.063 µg/mL
KD AAAA [1]: completely lost binding affinity
inhibition of Prp8 splicing in vivo in C. neoformans (Prp8 intein): completely inhibited Prp8 splicing
